Consider 38 compounds from patent publication US6596863B2, “Medical composition containing nitroetheneamine Derivative or salt there of as active constituent” (Ishihara Sangyo Kaisha, Ltd., priority 1998, dated 2003).

Where two headings read alike, the source gives them in different places.

In data set [1] the target is T1, human MMP-9 (gelatinase B) (Homo sapiens, UniProt P14780).
T1 construct: endogenous in cells; host or cells: HT1080 human fibrosarcoma cells (ATCC CCL-121), PMA-stimulated; enzyme purified from the culture supernatant
T1 sequence (P14780 107-707 limits assumed): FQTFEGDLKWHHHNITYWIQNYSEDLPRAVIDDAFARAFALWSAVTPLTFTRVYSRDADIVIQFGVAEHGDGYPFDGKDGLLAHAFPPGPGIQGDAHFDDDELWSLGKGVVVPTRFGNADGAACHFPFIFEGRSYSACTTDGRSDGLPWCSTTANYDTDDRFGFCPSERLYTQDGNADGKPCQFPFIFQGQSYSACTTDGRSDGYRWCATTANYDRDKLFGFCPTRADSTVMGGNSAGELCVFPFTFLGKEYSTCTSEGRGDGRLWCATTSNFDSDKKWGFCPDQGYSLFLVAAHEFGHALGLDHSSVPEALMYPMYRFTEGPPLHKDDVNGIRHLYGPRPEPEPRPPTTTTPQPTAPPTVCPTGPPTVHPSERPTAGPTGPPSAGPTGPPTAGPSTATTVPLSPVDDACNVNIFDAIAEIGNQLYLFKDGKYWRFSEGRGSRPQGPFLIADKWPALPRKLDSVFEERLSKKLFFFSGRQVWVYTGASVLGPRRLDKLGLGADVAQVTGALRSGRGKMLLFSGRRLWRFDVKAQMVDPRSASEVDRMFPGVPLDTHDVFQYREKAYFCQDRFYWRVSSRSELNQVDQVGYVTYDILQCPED
Briefly: Inhibition activity against human MMP-9 (gelatinase B), fluorescent peptide substrate. Type of data set: biochemical. The gist of the method:
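MMP-9 purified from PMA-stimulated (10 ng/ml) HT1080 supernatant, or commercial enzyme (0.0125-0.025 unit/ml or 0.2 μg/ml final), incubated with compound and 10 μM final Mca-Pro-Leu-Gly-Leu-Dpa-Ala-Arg-NH2 fluorescent substrate at 37 °C for 3 h in the dark. Precursor enzyme activated with APMA.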

Where [2] appears, read: compounds of the formula (I), 1st measurement, read-out: MMP-9 inhibition activities IC50, 1st.
Setting [3] is: compounds of the formula (I), 2nd measurement, read-out: MMP-9 inhibition activities IC50, 2nd.
[4] abbreviates: compounds of the formula (I), average of 1st and 2nd (or single measurement), read-out: MMP-9 inhibition activities IC50, Average.
Setting [5] is: intermediates, compounds of the formula (IV), 1st measurement, read-out: MMP-9 inhibition activities IC50, 1st.
[6] abbreviates: intermediates, compounds of the formula (IV), 2nd measurement, read-out: MMP-9 inhibition activities IC50, 2nd.
The mark [7] stands for this setting: intermediates, compounds of the formula (IV), average of 1st and 2nd (or single measurement), read-out: MMP-9 inhibition activities IC50, Average.

Usually IC50 stands for the concentration that inhibits the measured activity by half. As usually defined, the melting point is the temperature of the solid-liquid transition. `O=[N+]([O-])C=C(NCCCCO)NNc1cc(C(F)(F)F)cc(Cl)n1` [compound 199] displayed a melting point of 150 to 151 °C. Further, the IC50 in data set [1] (setting [2]) came to 5.7 µM. Besides, the IC50 in data set [1] (setting [3]) was determined as 6.2 µM. The IC50 in data set [1] (setting [4]) was determined as 6 µM.
The matching figures for `Cc1nn(C)c(C)c1NC(=C[N+](=O)[O-])NN` [compound 111]: 210 to 214 °C (dec.), 45.5 µM, 26.8 µM and 36.2 µM.
Compound `COc1cccc(NC(=C[N+](=O)[O-])SC)c1` [Intermediate 20] yielded a melting point of 118 to 121 °C. Moreover, the IC50 in data set [1] (setting [5]) worked out at 38.9 µM. The 50% inhibitory concentration (IC50) in data set [1] (setting [6]) turned out to be 49.6 µM. The concentration for half-maximal inhibition (IC50) in data set [1] (setting [7]) was 44.3 µM.
`CNC(=C[N+](=O)[O-])NNc1ccc(C(F)(F)F)cc1` [compound 40]: the melting point amounted to 190 °C. The 50% inhibitory concentration (IC50) in data set [1] (setting [2]) came to 13.5 µM. Also, in data set [1] (setting [3]), the IC50 amounted to 28.7 µM. Besides, in data set [1] (setting [4]), the IC50 came out at 21.1 µM.
For `CNC(=C[N+](=O)[O-])NNc1nc(OC)cc(OC)n1` [compound 105], the melting point was 166 to 167 °C (dec.). Besides, the 50% inhibitory concentration (IC50) in data set [1] (setting [2]) stood at 14.2 µM. Also, the 50% inhibitory concentration (IC50) in data set [1] (setting [3]) stood at 17 µM. In addition, the IC50 in data set [1] (setting [4]) was 15.6 µM.
The matching figures for `CNC(=C[N+](=O)[O-])NNc1cc(C(F)(F)F)cc(OCc2ccco2)n1` [compound 120]: 154 °C (dec.), 39.8 µM, 39.4 µM and 39.6 µM.
As for `CNC(=C[N+](=O)[O-])NNc1ncnc2c(C)csc12` [compound 170], the melting point is 216 °C (dec.). Also, the IC50 in data set [1] (setting [2]) was 5.6 µM. For the same compound, the IC50 in data set [1] (setting [4]) was 5.6 µM.
Consider `CNC(=C[N+](=O)[O-])NN=Cc1ccc2ccccc2c1` [compound 135], for which the melting point was 190 °C (dec.). The IC50 in data set [1] (setting [2]) was determined as 28.2 µM. In data set [1] (setting [3]), the IC50 was found to be 20.4 µM. Also, the 50% inhibitory concentration (IC50) in data set [1] (setting [4]) stood at 24.3 µM.
The matching figures for `CNC(=C[N+](=O)[O-])NNS(=O)(=O)c1ccccc1` [compound 109]: 169 to 170 °C (dec.), 20.8 µM, 26.9 µM and 23.9 µM.
Taken in the same sequence, the figures for `CNC(=C[N+](=O)[O-])NNc1cc(C(F)(F)F)cc(OCC2CCCCO2)n1` (stereo not drawn) [compound 128] were 93 to 95 °C, 19.2 µM, 10.3 µM and 13 µM.
On to `CNC(=C[N+](=O)[O-])NNc1cc(C(F)(F)F)cc(OCc2ccccn2)n1` [compound 122], for which the melting point was 170 °C (dec.). For the same compound, the IC50 in data set [1] (setting [2]) is 12.6 µM. The IC50 in data set [1] (setting [3]) is 16.3 µM. For the same compound, the IC50 in data set [1] (setting [4]) was found to be 14.5 µM.
Taken in the same sequence, the figures for `CCOC(=O)c1ccc(NC(=C[N+](=O)[O-])NN)cc1` [compound 74] were 155 °C (dec.), 49.6 µM, 49.4 µM and 49.5 µM.
The matching figures for `NNC(=C[N+](=O)[O-])NC1CCCC1` [compound 91]: 192 °C (dec.), 20 µM, 35.7 µM and 27.9 µM.
Taken in the same sequence, the figures for `CCOC(=O)Cc1ccc(NC(=C[N+](=O)[O-])NN)cc1` [compound 73] were 68 to 70 °C, 44.6 µM, 47.9 µM and 46.3 µM.
In turn, `COc1ccc(NC(=C[N+](=O)[O-])NNc2ccc(C(F)(F)F)cn2)cc1` [compound 41] returned a melting point of 155 to 157 °C. Besides, the concentration for half-maximal inhibition (IC50) in data set [1] (setting [2]) came to 15.1 µM. Further, in data set [1] (setting [3]), the concentration for half-maximal inhibition (IC50) turned out to be 13.7 µM. Besides, in data set [1] (setting [4]), the concentration for half-maximal inhibition (IC50) was 14.4 µM.
In turn, `CSC(=C[N+](=O)[O-])NC1CC1` [Intermediate 2] had a melting point of 101.5 to 106 °C. In addition, in data set [1] (setting [5]), the IC50 was found to be 31.4 µM. The IC50 in data set [1] (setting [6]) was found to be 59.9 µM. For the same compound, the IC50 in data set [1] (setting [7]) is 45.7 µM.
For the compound `CNC(=C[N+](=O)[O-])NN=C(C)c1cccnc1` [compound 34], the melting point is 181 °C (dec.). Further, the concentration for half-maximal inhibition (IC50) in data set [1] (setting [2]) turned out to be 30.2 µM. Moreover, the IC50 in data set [1] (setting [3]) is 26.9 µM. The concentration for half-maximal inhibition (IC50) in data set [1] (setting [4]) worked out at 28.6 µM.
For `CNC(=C[N+](=O)[O-])NNc1ccc([N+](=O)[O-])cc1` [compound 13], the melting point is 186 °C (dec.). Also, the half-maximal inhibitory concentration (IC50) in data set [1] (setting [2]) is 20.1 µM. The IC50 in data set [1] (setting [3]) stood at 16.1 µM. In addition, the IC50 in data set [1] (setting [4]) was found to be 18.1 µM.
Taken in the same sequence, the figures for `NNC(=C[N+](=O)[O-])NCc1ccc(C(F)(F)F)cc1` [compound 78] were 162 °C, 44.1 µM, 36 µM and 40.1 µM.
For `CSC(=C[N+](=O)[O-])NS(=O)(=O)c1ccc(-c2ccccc2)cc1` [Intermediate 62], the melting point was 75 to 77 °C. Also, the IC50 in data set [1] (setting [5]) was 4.5 µM. Also, in data set [1] (setting [7]), the IC50 was 4.5 µM.
For `CNC(=C[N+](=O)[O-])NNc1ccccc1Cl` [compound 8], the melting point was 178 °C (dec.). For the same compound, the 50% inhibitory concentration (IC50) in data set [1] (setting [2]) worked out at 36.7 µM. The IC50 in data set [1] (setting [3]) turned out to be 30.1 µM. For the same compound, in data set [1] (setting [4]), the IC50 was 33.4 µM.
Take `CNC(=C[N+](=O)[O-])NNc1cccc(Cl)n1` [compound 145]: the melting point is 221 °C (dec.). Also, the IC50 in data set [1] (setting [2]) amounted to 1.7 µM. Further, the concentration for half-maximal inhibition (IC50) in data set [1] (setting [3]) turned out to be 4.1 µM. Moreover, the half-inhibitory concentration (IC50) in data set [1] (setting [4]) worked out at 2.9 µM.
Take `CNC(=C[N+](=O)[O-])NNc1cc(C(F)(F)F)cc(C)n1` [compound 27]: the melting point is 161 to 162 °C. Also, the half-maximal inhibitory concentration (IC50) in data set [1] (setting [2]) is 26.6 µM. The half-inhibitory concentration (IC50) in data set [1] (setting [3]) was found to be 24.5 µM. The IC50 in data set [1] (setting [4]) is 25.6 µM.
Taken in the same sequence, the figures for `NNC(=C[N+](=O)[O-])NC1CC1` [compound 90] were 145 °C (dec.), 18.7 µM, 37.4 µM and 28 µM.
The compound `CNC(=C[N+](=O)[O-])NN=C(C)C` [compound 25] came in with a melting point of 136 °C. Moreover, the IC50 in data set [1] (setting [2]) is 21.9 µM. The concentration for half-maximal inhibition (IC50) in data set [1] (setting [3]) worked out at 30 µM. Further, the half-maximal inhibitory concentration (IC50) in data set [1] (setting [4]) was found to be 26 µM.
Turning to `CNC(=C[N+](=O)[O-])NNc1cc(C(F)(F)F)nc(C(F)(F)F)c1` [compound 99], the melting point is 180 to 181 °C (dec.). In data set [1] (setting [2]), the half-maximal inhibitory concentration (IC50) was 20.5 µM. Further, the IC50 in data set [1] (setting [3]) was 30 µM. Moreover, the half-inhibitory concentration (IC50) in data set [1] (setting [4]) turned out to be 25.3 µM.
For the compound `CNC(=C[N+](=O)[O-])NNc1cc(C(F)(F)F)ccn1` [compound 94], the melting point was 174 to 175 °C (dec.). For the same compound, the IC50 in data set [1] (setting [2]) was 4.2 µM. The IC50 in data set [1] (setting [3]) worked out at 7 µM. Besides, the IC50 in data set [1] (setting [4]) came to 5.6 µM.
Taken in the same sequence, the figures for `CNC(=C[N+](=O)[O-])NN=Cc1ccc(Cl)cc1` [compound 136] were 186 °C (dec.), 21.3 µM, 29.2 µM and 25.3 µM.
`COc1cccc(NC(=C[N+](=O)[O-])NN)c1` [compound 52] registered a melting point of 144 °C. In addition, the 50% inhibitory concentration (IC50) in data set [1] (setting [2]) is 21.6 µM. Moreover, in data set [1] (setting [3]), the IC50 was 30.2 µM. Also, the 50% inhibitory concentration (IC50) in data set [1] (setting [4]) came to 25.9 µM.
Take `CNC(=C[N+](=O)[O-])NNc1cc(C(F)(F)F)cc(SC)n1` [compound 125]: the melting point was 192 °C (dec.). Further, the IC50 in data set [1] (setting [2]) came to 10.1 µM. The IC50 in data set [1] (setting [3]) was found to be 15.8 µM. In addition, the IC50 in data set [1] (setting [4]) was 13 µM.
Taken in the same sequence, the figures for `NNC(=C[N+](=O)[O-])Nc1ccc2c(c1)OCO2` [compound 110] were 177 to 180 °C (dec.), 35.2 µM, 29.3 µM and 32.3 µM.
Taken in the same sequence, the figures for `CNC(=C[N+](=O)[O-])NNc1ncc(C(F)(F)F)cc1Cl` [compound 21] were 168 °C (dec.), 11.7 µM, 18.1 µM and 14.9 µM.
The matching figures for `CSc1ccc(NC(=C[N+](=O)[O-])NN)cc1` [compound 72]: 177 °C (dec.), 40.8 µM, 41.5 µM and 41.2 µM.
As for `CNC(=C[N+](=O)[O-])NNc1ccc2ccccc2n1` [compound 127], the melting point was 202 °C (dec.). The IC50 in data set [1] (setting [2]) was 1.4 µM. Further, the half-inhibitory concentration (IC50) in data set [1] (setting [3]) was found to be 2.8 µM. The 50% inhibitory concentration (IC50) in data set [1] (setting [4]) stood at 2.1 µM.
Compound `CSC(=C[N+](=O)[O-])Nc1ccc([N+](=O)[O-])cc1` [Intermediate 11] registered a melting point of 180 °C. Moreover, in data set [1] (setting [5]), the half-inhibitory concentration (IC50) is 17.6 µM. Further, the IC50 in data set [1] (setting [6]) amounted to 15.9 µM. Further, the half-inhibitory concentration (IC50) in data set [1] (setting [7]) turned out to be 16.8 µM.
For `CCOc1cc(C(F)(F)F)cc(NNC(=C[N+](=O)[O-])NC)n1` [compound 106], the melting point is 185 to 186 °C (dec.). In data set [1] (setting [2]), the half-inhibitory concentration (IC50) was determined as 11.7 µM. Besides, the half-maximal inhibitory concentration (IC50) in data set [1] (setting [3]) was determined as 8.4 µM. Moreover, the IC50 in data set [1] (setting [4]) turned out to be 10.1 µM.
The matching figures for `NNC(=C[N+](=O)[O-])Nc1ccc(OC(F)(F)F)cc1` [Compound No. 61, N-(1-hydrazino-2-nitroethenyl)-4-trifluoromethoxyaniline]: 161 °C (dec.), 39.7 µM, 42.2 µM and 40.9 µM.
As to `COc1ccccc1NC(=C[N+](=O)[O-])SC` [Intermediate 25], the melting point lay within 128 to 130 °C. The IC50 in data set [1] (setting [5]) came to 38.9 µM. The 50% inhibitory concentration (IC50) in data set [1] (setting [6]) was 35.3 µM. Also, the IC50 in data set [1] (setting [7]) turned out to be 37.1 µM.
